Legend:
Type in all cases: functional
Bacillus subtilis = assay: Antibacterial activity against Bacillus subtilis DSM10 measured after 18 hrs by micro broth dilution assay
[1] = test system: Mycolicibacterium smegmatis; assay: Antibacterial activity against Mycobacterium smegmatis ATCC607 measured after 48 hrs by BacTiter-glo assay
Listeria monocytogenes = assay: Antibacterial activity against Listeria monocytogenes DSM20600 measured after 48 hrs by BacTiter-glo assay
Staphylococcus aureus = assay: Antibacterial activity against Staphylococcus aureus ATCC25923 measured after 18 hrs by micro broth dilution assay
Escherichia coli [2] = assay: Antibacterial activity against Escherichia coli ATCC25922 measured after 18 hrs by micro broth dilution assay
Escherichia coli [3] = assay: Antibacterial activity against delta tolC deficient Escherichia coli ATCC25922 measured after 18 hrs by micro broth dilution assay
Candida albicans = assay: Antifungal activity against Candida albicans FH2173 measured after 48 hrs by BacTiter-glo assay
Aspergillus flavus = assay: Antifungal activity against Aspergillus flavus ATCC9170 measured after 24 hrs by BacTiter-glo assay
Caenorhabditis elegans = assay: Antihelminthic activity against Caenorhabditis elegans N2 assessed as reduction in worm motility measured after 2 days by binocular dissecting microscopy; conditions: N2, 48 h, time 2 day

SMILES | MIC (Bacillus subtilis) [µg/mL] | MIC [1] [µg/mL] | MIC (Listeria monocytogenes) [µg/mL] | MIC (Staphylococcus aureus) [µg/mL] | MIC (Escherichia coli [2]) [µg/mL] | MIC (Escherichia coli [3]) [µg/mL] | MIC (Candida albicans) [µg/mL] | MIC (Aspergillus flavus) [µg/mL] | MIC (Caenorhabditis elegans) [µg/mL]
CCCC1=[N+](CCc2ccccc2)C(C)(CCC(=O)c2ccccc2N)C(NCCc2ccccc2)=C1 (centres undefined) | 4 | 8 | 4 | 8 | > 64 | > 64 | 16 | 16 | 64
CCCc1c(CC)cc(CC)c[n+]1CCc1ccccc1 | > 64 | > 64 | > 64 | > 64 | > 64 | > 64 | > 64 | > 64 | > 64
CCCc1n(CCc2ccccc2)c(C)c(C)[n+]1CCc1ccccc1 | 16 | 8 | > 64 | 64 | > 64 | > 64 | > 64 | > 64 | > 64

Now from value to molecule:

MIC (Bacillus subtilis) [µg/mL] | MIC [1] [µg/mL] | MIC (Listeria monocytogenes) [µg/mL] | MIC (Staphylococcus aureus) [µg/mL] | MIC (Escherichia coli [2]) [µg/mL] | MIC (Escherichia coli [3]) [µg/mL] | MIC (Candida albicans) [µg/mL] | MIC (Aspergillus flavus) [µg/mL] | MIC (Caenorhabditis elegans) [µg/mL] | SMILES
1 | 0.5 | 0.5 | 0.5 | 64 | 8 | 4 | 1 | 32 | CCCc1cc2n(CCc3ccccc3)cc(-c3ccccc3)cc-2[n+]1CCc1ccccc1
4 | 4 | 2 | 4 | > 64 | 64 | 8 | 8 | > 64 | CCCc1c(C)cn(CCc2ccccc2)c2cc(CCC)[n+](CCc3ccccc3)c1-2
32 | 8 | > 64 | 64 | > 64 | > 64 | > 64 | > 64 | > 64 | CCCc1n(CCc2ccccc2)c(C)c(CC)[n+]1CCc1ccccc1
